From patent publication US11020405B2, “Method for prevention or treatment of diabetic complications” (KANGWON NATIONAL UNIVERSITY UNIVERSITY-INDUSTRY COOPERATION …, priority 2017, dated 2021)

Tests used:
[1] = test system: TGase; test: Analysis of TGase activity in retinas of diabetic mouse model; type: in vivo, C57BL/6 mice; conditions: intravitreal 2 μL of 2 mM midazolam, 2 μM cystamine or 500 mM MDC (FIGS. 14, 15)
Protocol: 6-week-old male C57BL/6 mice (DBL, EumSeong, Korea) were administered with streptozotocin (Sigma-Aldrich) dissolved in a 100 mM citrate buffer (pH 4.5) through intraperitoneal injection in an amount of 150 mg each per kg of mouse weight to give diabetic mouse models. In the diabetic mouse models, the blood glucose level was 19 mM or more when not fasting, and polyuria and diabetes, considered signs of diabetes, were observed. […]
48 μL of 100 mM 5-(biotinamido)pentylamine was injected into the left ventricle of each of normal mice (Normal), midazolam-administered normal mice (Midazolam), diabetic mice (Diabetic), midazolam-administered diabetic mice (Diabetic+Midazolam), flumazenil- and midazolam-administered diabetic mice (Diabetic+flumazenil+Midazolam), cystamine-administered diabetic mice (Diabetic+cystamine) and MDC-administered diabetic mice (Diabetic+MDC) and circulated for 10 min, after which cervical dislocation was performed, and the eyeballs were extracted, fixed with 4% paraformaldehyde for 45 min, incised and subjected to permeation treatment for 30 min. The obtained retinal samples were incubated with a blocking solution for 30 min, treated with FITC-conjugated streptavidin (1:200, v/v), stained for 1 hr, and measured using confocal microscopy. […]

[2] = test system: B16F10 cells; test: Hyperglycemia-induced cancer metastasis in lungs of diabetic mice (melanoma nodules); type: in vivo, C57BL/6 mice; conditions: 10 mg/kg midazolam intraperitoneal daily for 14 days, B16F10 cells intravenously (FIG. 22)
Protocol: FIGS. 22A and 22B show the preventive effects of midazolam against hyperglycemia-induced cancer metastasis in the lungs of diabetic mice. Six-week-old male C57BL/6 mice were administered with streptozotocin (150 mg/kg) to give diabetic mouse models. One weeks after streptozotocin injection, diabetic mice were administered 10 mg/kg midazolam by intraperitoneal injection daily for 14 days, and diabetic and midazolam supplemented diabetic mice were intravenously injected with B16F10 cells (5×10^5) in PBS. The weight of mice were measure in diabetic (16.4±0.2 g) and midazolam supplemented diabetic mice (16.2±0.5 g). Blood glucose levels were also monitored in diabetic (511.0±10.0 mg/dL) and midazolam supplemented diabetic mice (515.7±3.4 mg/dL). Two weeks later, the mice were euthanized by cervical dislocation, and the lungs were removed and bleached in Fekete's solution (70% ethanol, 3.7% paraformaldehyde, 0.75 M glacial acetic acid). Representative images of melanoma metastasis in lungs are shown in additional FIG. 22A. The results of melanoma metastasis assessed by counting metastatic lung nodules under a dissection microscope are shown in additional FIG. 22B (n=2/group).

[3] = test system: aortic endothelium of diabetic mice; test: Hyperglycemia-induced endothelial apoptosis in aortic endothelium of diabetic mice (TUNEL); type: in vivo, C57BL/6 mice; conditions: midazolam 10 mg/kg intraperitoneal daily for 14 days (FIG. 19)
Protocol: FIGS. 19A and 19B show the preventive effects of midazolam against hyperglycemia-induced endothelial apoptosis in the aortic endothelium of diabetic mice. Six-week-old male C57BL/6 mice were administered with streptozotocin (150 mg/kg body weight) to give diabetic mouse models. One week after streptozotocin injection, diabetic mice were administered midazolam (10 mg/kg) by intraperitoneal injection daily for 14 days. The body weight of mice were measure in normal (20.7±0.1 g), diabetic (17.1±0.1 g), and midazolam supplemented diabetic mice (17.0±0.3 g). Blood glucose levels were also monitored in normal (124.0±12.0 mg/dL), diabetic (509.0±1.0 mg/dL), and midazolam supplemented diabetic mice (515.7±3.4 mg/dL). Aorta of mice were dissected and cut longitudinally to expose the endothelium. And then aortic segments were fixed for 15 min with 1% (w/v) paraformaldehyde in PBS, followed by treatment for 30 min with 70% (v/v) ethanol on ice. Apoptotic cells were stained by terminal deoxynucleotidyl transferase dUTP nick end labeling (TUNEL) with nuclear counterstaining with DAPI and visualized by confocal microscopy in the aortic endothelium. […] The results of endothelial apoptosis quantitatively analyzed by measurement of TUNEL staining in the aorta are shown in additional FIG. 19B (n=4 for normal and diabetic, n=6 for diabetic+Midazolam).

[4] = test system: human retinal endothelial cells (HRECs); test: Analysis of ROS of cells (H2DCFDA fluorescence); type: cell-based
Protocol: Purchased from Applied Cell Biology Research Institute (Cell Systems, Kirkland, Wash.), human retinal endothelial cells (HRECs) were cultured in an M19 medium, containing 20% FBS, 3 ng/mL bFGF, 5 U/mL heparin, 100 U/mL penicillin and […], in a 2% gelatin-coated plate.
Before the following Test Examples 2 to 7, the HRECs were cultured for 6 hr in a medium containing 1% FBS and an antibiotic agent, thus preparing HRECs of Test Example 1.
With reference to FIG. 3A, the HRECs of Test Example 1 were treated with 0 to 20 μM midazolam, cultured for 30 min, treated with 10 ng/mL VEGF and 10 μM H2DCFDA (Molecular Probes, Eugene, Oreg.), stained for 10 min in a phenol-red-free low-serum medium, and then measured using confocal microscopy to thus determine the fluorescence intensity of single cells.
With reference to FIG. 3B, the HRECs of Test Example 1 were subjected to the respective treatments below and cultured for 30 min. Upon treatment with 10 ng/mL VEGF, treatment with 10 μM H2DCFDA was performed therewith, or alternatively, treatment with 10 μM H2DCFDA was performed alone, followed by staining for 10 min in a phenol-red-free low-serum medium and then measurement via confocal microscopy to thus determine the fluorescence intensity of single cells.

With `Cc1ncc2n1-c1ccc(Cl)cc1C(c1ccccc1F)=NC2` [midazolam] the “TGase activity in retina compared to normal mice” value [1] was “an increase in TGase activation was suppressed”, the “number of metastatic nodules in the lungs” value [2] was “the number of metastatic nodules in the lungs of diabetic mice was suppressed” and the “hyperglycemia-induced endothelial apoptosis in aorta (TUNEL staining)” value [3] was “inhibited the hyperglycemia-induced apoptosis of diabetic aortas”. The “ROS concentration, concentration dependence” value ([4]; 0 to 20 μM midazolam 30 min, then 10 ng/mL VEGF (FIG. 3A)) was “ROS concentration was decreased with an increase in the concentration of midazolam” and the “ROS concentration (VEGF-induced) compared to control” value ([4]; 10 ng/mL VEGF with 20 μM midazolam, 5 μM BAPTA-AM, 1 mM NAC, 0.5 μM Trolox, 50 μM cystamine or 20 μM MDC (FIG. 3B)) was “no significant ROS concentration increase was observed”.
